{"source": "patent US20230414783A1", "about": "“Biliary Delivery Methods, Compositions and Kits for Use Therein” (AMBYS MEDICINES, INC., priority 2020, published 2023)", "origin": "cited, not measured here", "system": "lysyl oxidase (LOX) family enzymes", "conditions": "subcutaneous injection or intravenous infusion; human subjects"}
{"smiles": "Cc1cc(F)c(C(=O)Nc2cccc(-c3nncn3C(C)C)n2)cc1-n1cnc(C2CC2)c1", "note": "[selonsertib]", "values": [{"measurement": "clinical efficacy", "result": "did not demonstrate clinical efficacy"}]}
